Laboratory results taken from PubChem BioAssay (NCI).
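Following 48 hours of exposure in 96-well plates, responses at five concentrations were used to interpolate endpoints linearly. GI50: concentration for 50% inhibition of growth. TGI marks complete inhibition of growth.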

Tests used:
Assay in all cases: inhibition of tumour cell growth, NCI panel, 48 h
A549 NSCLC = tested on: A549 NSCLC
ACHN renal = tested on: ACHN renal
DU-145 prostate = tested on: DU-145 prostate
EKVX NSCLC = tested on: EKVX NSCLC
HCT-116 colon = tested on: HCT-116 colon
MCF7 breast = tested on: MCF7 breast
NCI-H522 lung = tested on: NCI-H522 lung
SF-268 CNS = tested on: SF-268 CNS
SK-MEL-2 melanoma = tested on: SK-MEL-2 melanoma
U251 CNS = tested on: U251 CNS

Row | SMILES | TGI (A549 NSCLC) [µM] | TGI (ACHN renal) [µM] | TGI (DU-145 prostate) [µM] | TGI (EKVX NSCLC) [µM] | TGI (HCT-116 colon) [µM] | TGI (MCF7 breast) [µM] | TGI (NCI-H522 lung) [µM] | TGI (SF-268 CNS) [µM] | TGI (SK-MEL-2 melanoma) [µM] | TGI (U251 CNS) [µM] | GI50 (A549 NSCLC) [µM] | GI50 (ACHN renal) [µM] | GI50 (DU-145 prostate) [µM] | GI50 (EKVX NSCLC) [µM] | GI50 (HCT-116 colon) [µM] | GI50 (MCF7 breast) [µM] | GI50 (NCI-H522 lung) [µM] | GI50 (SF-268 CNS) [µM] | GI50 (SK-MEL-2 melanoma) [µM] | GI50 (U251 CNS) [µM]
1 | CC(=O)NC1C(OCc2ccccc2)OC(CO)C(O)C1OC(C)C(=O)NC(C(=O)NC(CCC(=O)NCCCCNc1c2ccccc2nc2cccc([N+](=O)[O-])c12)C(N)=O)C(C)C (stereo not given) | 7.77 | 9.18 | 19.6 | 10.1 | 10.5 | > 44 | 0.511 | 13.1 | 12.5 | > 56.7 | – | – | – | – | – | – | – | – | – | –
2 | CN=C(/N=c1\ssc(=NC)n1C)N(C)C | > 100 | > 100 | – | > 100 | – | – | > 100 | > 100 | – | > 100 | – | – | – | – | – | – | – | – | – | –
3 | C=CCOn1c(C=C)nc2ccc(C)cc21 | 68.5 | 59.6 | – | 37.8 | 24.4 | 24.9 | 32.9 | 80.2 | 30.6 | 26 | – | – | – | – | – | – | – | – | – | –
4 | O=C1c2c(O)cccc2-c2nn(CCNCCO)c3ccc(NCCNCCO)c1c23 | 0.482 | 0.992 | 0.0707 | 4.8 | 2.75 | 3.15 | 0.164 | 1.17 | 1.38 | 0.195 | – | – | – | – | – | – | – | – | – | –
5 | C=C(C)CC1(O[Si](C)(C)C)C(=O)C(OCC)=C1OCC (stereo not given) | > 100 | > 100 | > 100 | > 100 | > 100 | > 100 | > 100 | > 100 | > 100 | > 100 | – | – | – | – | – | – | – | – | – | –
6 | C/C(=N\Nc1nc2cc(C(F)(F)F)ccc2s1)c1ccccn1 | – | 5.84 | 3.98 | 5.55 | 2.98 | – | 4.96 | 3.19 | 4.69 | – | – | – | – | – | – | – | – | – | – | –
7 | CN(C)Cc1cc(C(=O)/C=C/c2ccccc2)cc(CN(C)C)c1O | 68.9 | > 100 | > 100 | > 100 | 87.8 | > 100 | 40.8 | > 100 | – | > 100 | – | – | – | – | – | – | – | – | – | –
8 | CC(C)(C)CC(C)(C)c1cc(O)c(O)c(CN2CCCCC2)c1 | 30.8 | 25.6 | 30.5 | 26.4 | 29.5 | 25.1 | 23.5 | 25.3 | – | 24.3 | – | – | – | – | – | – | – | – | – | –
9 | CN1CC2=C(NC(=S)NC2c2ccccc2)/C(=C/c2ccccc2)C1 (stereo not given) | > 100 | > 100 | > 100 | > 100 | 63.3 | > 100 | > 100 | > 100 | > 100 | > 100 | – | – | – | – | – | – | – | – | – | –
10 | CN1C(=O)C(O)C[C@@H]1c1ccccc1 (stereo not given in full) | > 100 | > 100 | > 100 | > 100 | > 100 | > 100 | > 100 | > 100 | > 100 | > 100 | – | – | – | – | – | – | – | – | – | –
11 | CCOP(=O)(O)CN1CCNCCN(CP(=O)(O)OCC)CCNCC1 | > 100 | > 100 | > 100 | > 100 | > 100 | > 100 | > 100 | – | > 100 | > 100 | – | – | – | – | – | – | – | – | – | –
12 | COc1ccc2[nH]c(O)c(/C=c3/cc4c(c(-c5ccc(F)c(OC)c5)n3)=Nc3ccccc3-4)c2c1 | 19.3 | 9.86 | 32.6 | 36 | 3.37 | 4.44 | 4.14 | 18 | 5.41 | 3.21 | 4.37 | 3.01 | 4.11 | 8.71 | 1.82 | 1.76 | 1.81 | 3.68 | 2.23 | 1.7
13 | COc1cc(C2C(Cl)C(=O)N2c2c(C)n(C)n(-c3ccccc3)c2=O)ccc1O (stereo not given) | 61.9 | 34.9 | > 100 | 70.2 | 19.3 | 48.7 | 31 | 75.5 | 50.4 | 38 | – | – | – | – | – | – | – | – | – | –
14 | COC[C@@H](N=Cc1ccc([N+](=O)[O-])cc1)C(C)C | > 100 | > 100 | > 100 | > 100 | > 100 | > 100 | > 100 | > 100 | > 100 | > 100 | – | – | – | – | – | – | – | – | – | –
15 | O=C(Nc1ccccc1C(=O)NCc1ccccc1)/C(=C/c1ccccc1)NC(=O)c1ccccc1 | > 100 | > 100 | > 100 | > 100 | > 100 | > 100 | > 100 | > 100 | > 100 | > 100 | – | – | – | – | – | – | – | – | – | –
16 | COc1ccc(C(=O)CC(c2ccccc2)[C@H]2C(c3ccc(OC)cc3)=Nc3c(nc(SC)n(C)c3=O)NC2c2ccccc2)cc1 (stereo not given in full) | > 100 | – | > 100 | > 100 | > 100 | > 100 | > 100 | > 100 | > 100 | > 100 | – | – | – | – | – | – | – | – | – | –
17 | COc1cccc(N=N/C(=N\NC(=O)c2ccc(C)cc2)c2ccc(N(CCC#N)CCC#N)cc2C)c1 | > 100 | > 100 | > 100 | > 100 | > 100 | > 100 | – | > 100 | > 100 | > 100 | – | – | – | – | – | – | – | – | – | –
18 | COc1ccc(-c2oc3cc(O)cc(O)c3c(=O)c2OC)cc1 | > 100 | > 100 | > 100 | > 100 | > 100 | > 100 | 9.7 | 78.2 | – | 52.1 | – | – | – | – | – | – | – | – | – | –
19 | CCN=C1C=CC(=C(c2ccc(N(CC)CC)cc2)c2ccc(N(CC)CC)cc2)c2ccccc21 | – | 1.07 | 1.37 | 1.18 | – | – | – | – | 0.383 | 1.11 | – | 0.194 | 0.0492 | 0.0378 | – | – | – | – | 0.0768 | 0.0348
20 | Cc1ccc(S(=O)CC(CF)OCn2cc(C)c(=O)[nH]c2=O)cc1 (stereo not given) | > 100 | > 100 | > 100 | – | > 100 | > 100 | > 100 | > 100 | > 100 | > 100 | – | – | – | – | – | – | – | – | – | –
